Data published in US9073941B2, “Compounds and methods for treating tuberculosis infection” (Academia Sinica, priority 2010, dated 2015).
In brackets after ≈: the same amount, converted by molar mass. Like-named read-outs stand apart in the source and are kept apart here.

Experiments:
[1] = molecular target: lipoamide dehydrogenase (Lpd) (Mycobacterium tuberculosis (strain ATCC 25618 / H37Rv), UniProt P9WHH9); assay: Lipoamide Dehydrogenase (Lpd) Inhibition Assay; format: biochemical
[2] = molecular target: Mtb PDH (Lpd+DlaT+AceE) (Mycobacterium tuberculosis (strain ATCC 25618 / H37Rv), UniProt P9WHH9); assay: PDH Inhibition Activity; format: biochemical
[3] = test system: Mycobacterium tuberculosis strains H37Rv; assay: In Vitro Antitubercular H37Rv MIC Assay (resazurin); format: cell-based; settings: 168 h
[4] = concentration required for 50% inhibition of LPD activity, DTNB detection, OD405 nm
[5] = concentration required for 50% inhibition of PDH activity, fluorescence ex 360 nm / em 460 nm, read-out: PDH IC50
[6] = Mycobacterium tuberculosis, H37RV
[7] = growth of Mycobacterium tuberculosis H37Rv, 7H9 medium, 7 days, tested 8-0.25 μg/mL

| Structure (SMILES) | IC50 [1, 4] [nM] | IC50 [2, 5] [nM] | also measured |
| --- | --- | --- | --- |
| CCC(C)n1c(NC(=O)c2ccccc2)c(C#N)c2nc3ccccc3nc21 (centres unmarked) [Compound 1004] | 870 ± 100 | > 5000 |  |
| Cn1nc(-c2ccccc2)nc2c(=O)n(C)c(=O)nc1-2 [Compound 601] | < 40 | < 40 | MIC [3, 6]: > 8 µg/mL |
| CCCCCn1c(NC(=O)c2ccc(Br)o2)c(C#N)c2nc3ccccc3nc21 [Compound 1007] |  |  | IC50 [1]: 1360 ± 160 nM; IC50 [2]: > 5000 nM |
| Cn1nc(-c2ccc(C(F)(F)F)cc2)nc2c(=O)n(C)c(=O)nc1-2 [Compound 619] | < 40 | < 40 |  |
| CCCCn1c(NC(=O)c2cccs2)c(C#N)c2nc3ccccc3nc21 [Compound 1006] | 860 ± 160 | > 5000 |  |
| CCn1nc(-c2cccnc2)nc2c(=O)n(C)c(=O)nc1-2 [Compound 608] |  |  | IC50 [1]: 190 ± 30 nM; IC50 [2]: < 40 nM; MIC [3, 6]: > 8 µg/mL |
| O=C1C=C(NCc2ccccc2)c2ccccc2C1=O [Compound 901] | 100 | 4280 | MIC [3, 7]: 8 µg/mL (≈ 30.4 µM) |
| CN1N=C(c2ccccc2)Nc2c1nc(O)n(C)c2=O [Compound 701] |  | < 40 | MIC [3, 6]: > 8 µg/mL |
| CCn1nc(-c2cccs2)nc2c(=O)n(C)c(=O)nc1-2 [Compound 610] | < 40 | < 40 | MIC [3, 6]: > 8 µg/mL |
| COCCn1c(NC(=O)c2cccc([N+](=O)[O-])c2)c(C#N)c2nc3ccccc3nc21 [Compound 1008] | 1050 ± 140 | > 5000 |  |
| Nc1c(Br)cc(Br)c2nsnc12 [Compound 202] |  | 1690 |  |
| O=C(OC[C@H]1O[C@H](OC(=O)c2cc(O)c(O)c(OC(=O)c3cc(O)c(O)c(O)c3)c2)[C@H](OC(=O)c2cc(O)c(O)c(OC(=O)c3cc(O)c(O)c(O)c3)c2)[C@@H](OC(=O)c2cc(O)c(O)c(OC(=O)c3cc(O)c(O)c(O)c3)c2)[C@@H]1OC(=O)c1cc(O)c(O)c(OC(=O)c2cc(O)c(O)c(O)c2)c1)c1cc(O)c(O)c(OC(=O)c2cc(O)c(O)c(O)c2)c1 [Compound 302] |  | 450 | MIC [3, 7]: > 8 µg/mL |
| CCn1nc(-c2ccccc2Cl)nc2c(=O)n(C)c(=O)nc1-2 [Compound 615] | < 40 | < 40 |  |
| Cn1nc(-c2ccc(F)cc2)nc2c(=O)n(C)c(=O)nc1-2 [Compound 616] |  |  | IC50 [1]: < 40 nM; IC50 [2]: < 40 nM |
| c1ccc2c(c1)ccn1c3ccccc3cc21 [Compound 401] |  | 140 | MIC [3, 7]: > 8 µg/mL |
| CCC(C)n1c(NC(=O)c2ccc(Br)o2)c(C#N)c2nc3ccccc3nc21 (centres unmarked) [Compound 1009] | 1650 ± 230 | > 5000 |  |
| CCCc1nc2c(=O)n(C)c(=O)nc-2n(C)n1 [Compound 617] | < 40 | < 40 |  |
| Nc1c(O)ccc2nsnc12 [Compound 203] |  | 3670 | MIC [3, 7]: > 8 µg/mL |
| O=C1c2ccccc2-c2nc3nonc3nc21 [Compound 103] |  | < 40 | MIC [3, 7]: ≤ 0.25 µg/mL |
| COc1ccc(CCI)cc1 [Compound 303] |  | < 40 | MIC [3, 7]: 2 µg/mL (≈ 7.63 µM) |
| CCn1nc(-c2ccccc2C)nc2c(=O)n(C)c(=O)nc1-2 [Compound 613] | < 40 | < 40 |  |

| Structure (SMILES) | IC50 [1, 4] [nM] | IC50 [2, 5] [nM] | also measured |
| --- | --- | --- | --- |
| Cn1c(N)c(C(=O)NCc2ccccc2)c2nc3ccccc3nc21 [Compound 1013] | > 4000 | > 5000 |  |
| CCCCn1c(NS(=O)(=O)c2ccc(C)cc2)c(C#N)c2nc3ccccc3nc21 [Compound 1005] | 900 ± 130 | > 5000 |  |
| C=CCOCc1ccccc1 [Compound 301] |  | 760 | MIC [3, 7]: 8 µg/mL (≈ 54 µM) |
| CC(C)n1cnc(S(=O)(=O)N2CCC(C(=O)NC3CC3)CC2)c1 [Compound 559] | 2990 ± 1390 |  |  |
| CCn1nc(-c2ccc(C(=O)OC)cc2)nc2c(=O)n(C)c(=O)nc1-2 [Compound 621] | < 40 | < 40 |  |
| N#Cc1c(NC(=O)c2ccc(Cl)c([N+](=O)[O-])c2)n(Cc2ccccc2)c2nc3ccccc3nc12 [Compound 1010] |  |  | IC50 [1]: > 4000 nM; IC50 [2]: > 5000 nM |
| Cc1ccc(NC(=O)C2CCN(S(=O)(=O)c3cn(C(C)C)cn3)CC2)cc1F [Compound 532] |  |  | IC50 [1]: 2850 ± 510 nM |
| Cc1cc(C)cc(NC(=O)C2CCN(S(=O)(=O)c3cn(C(C)C)cn3)CC2)c1 [Compound 514] | 2670 ± 570 |  |  |
| CCc1ccc2nc(O)c(CNc3ccc(N(C)C)cc3)cc2c1 [Compound 806] | 4730 ± 910 |  |  |
| COCCCn1c(N)c(C(=O)NCCC(C)C)c2nc3ccccc3nc21 [Compound 1012] | > 4000 | > 5000 |  |
| CN(C(=O)c1ccc2c(c1)OCCO2)c1nc2c(s1)CCc1c-2cnn1C [Compound 1106] |  |  | IC50 [1]: 2670 ± 230 nM |
| CCn1nc(-c2ccc([N+](=O)[O-])cc2)nc2c(=O)n(C)c(=O)nc1-2 [Compound 620] | < 40 | < 40 |  |
| COc1ccc2cc(CNc3ccc(O)cc3)c(O)nc2c1 [Compound 801] | 2250 ± 160 |  |  |
| CC(C)n1cnc(S(=O)(=O)N2CCC(C(=O)NCc3ccccc3)CC2)c1 [Compound 536] |  |  | IC50 [1]: 2690 ± 800 nM |
| COc1cccc(NC(=O)C2CCN(S(=O)(=O)c3cn(C(C)C)cn3)CC2)c1 [Compound 516] | 2460 ± 760 |  |  |
| CCOC(=O)c1c(NS(=O)(=O)c2ccccc2)n(CCCOC)c2nc3ccccc3nc12 [Compound 1011] | 1310 ± 160 | > 5000 |  |
| CCOc1ccccc1/C=C1\Cc2ccccc2C1=O [Compound 102] |  | 1130 | MIC [3, 7]: > 8 µg/mL |
| CN(C(=O)Cc1cccs1)c1nc2c(s1)CCc1c-2cnn1C [Compound 1103] | 2890 ± 460 |  |  |
| Cc1ccc(-c2nc3c(=O)n(C)c(=O)nc-3n(C)n2)cc1 [Compound 618] |  |  | IC50 [1]: < 40 nM; IC50 [2]: < 40 nM |
| CCn1cnc(S(=O)(=O)N2CCC(C(=O)Nc3ccc(OC)cc3)CC2)c1 [Compound 541] | 3310 ± 1220 |  |  |
| Cc1ccc2cc(CNc3ccc(O)cc3)c(O)nc2c1 [Compound 805] | 1640 ± 140 |  |  |

| Structure (SMILES) | IC50 [1, 4] [nM] | IC50 [2, 5] [nM] | also measured |
| --- | --- | --- | --- |
| CC(=O)C(C(C)=O)C1=CC(=O)C(=O)c2ccccc21 [Compound 906] | 2150 ± 430 | > 5000 |  |
| CSc1cccc(NC(=O)C2CCN(S(=O)(=O)c3cn(C(C)C)cn3)CC2)c1 [Compound 515] | 4810 ± 840 |  |  |
| COc1ccc(NC(=O)C2CCN(S(=O)(=O)c3cn(C(C)C)cn3)CC2)cc1OC [Compound 528] | 1830 ± 140 |  |  |
| CCOc1ccc(CNC(=O)C2CCN(S(=O)(=O)c3cn(C(C)C)cn3)CC2)cc1OC [Compound 561] | 3020 ± 1780 |  |  |
| CC(C)n1cnc(S(=O)(=O)N2CCC(C(=O)NCc3ccc(Cl)cc3)CC2)c1 [Compound 556] | 3750 ± 1010 |  |  |
| CC(C)n1cnc(S(=O)(=O)N2CCC(C(=O)Nc3ccc4c(c3)OCCO4)CC2)c1 [Compound 523] | 1600 ± 480 |  |  |
| COc1ccc(NC(=O)CN(C)S(=O)(=O)c2cc(Br)cnc2N)cc1 [Compound 500] |  |  | MIC [3, 7]: > 8 µg/mL |
| CCCCn1c(NC(=O)c2ccccc2)c(C#N)c2nc3ccccc3nc21 [Compound 1003] | 520 ± 70 | > 5000 |  |
| COc1ccc(NC(=O)CN(C)S(=O)(=O)c2cc(Br)cnc2N)cc1OC [Compound 502] | 840 ± 130 |  |  |
| CCn1cnc(S(=O)(=O)N2CCC(C(=O)Nc3ccc(C)c(Cl)c3)CC2)c1 [Compound 544] | 4550 ± 1270 |  |  |
| Cn1nc(-c2ccc([N+](=O)[O-])cc2)nc2c(=O)n(C)c(=O)nc1-2 [Compound 614] | < 40 | < 40 |  |
| COc1ccc(NC(=O)C2CCN(S(=O)(=O)c3cn(C(C)C)cn3)CC2)cc1Cl [Compound 534] | 1690 ± 380 |  |  |
| CC(C)n1cnc(S(=O)(=O)N2CCC(C(=O)Nc3cccc(F)c3)CC2)c1 [Compound 517] | 3610 ± 980 |  |  |
| CCN(C(=O)C1CCCO1)c1nc2c(s1)CCc1c-2cnn1C (centres unmarked) [Compound 1108] | 3760 ± 190 |  |  |
| CCOc1ccc2nc(O)c(CNc3ccc4[nH]ncc4c3)cc2c1 [Compound 807] | 4540 ± 770 |  |  |
| CCc1ccc(NC(=O)C2CCN(S(=O)(=O)c3cn(C(C)C)cn3)CC2)cc1 [Compound 512] | 2900 ± 710 |  |  |
| Cc1ccc2nc(NC(=O)C3CCN(S(=O)(=O)c4cn(C(C)C)cn4)CC3)sc2c1 [Compound 542] | 5060 ± 1090 |  |  |
| COc1cc(OC)c(NC(=O)C2CCN(S(=O)(=O)c3cn(C(C)C)cn3)CC2)cc1Cl [Compound 546] |  |  | IC50 [1]: 2850 ± 780 nM |
| COCCN(C(=O)c1cccs1)c1nc2c(s1)CCc1c-2cnn1C [Compound 1101] | 1620 ± 240 |  |  |
| O=C1c2ccccc2C(O)(O)[C@@]1(O)[C@]1(O)C(=O)c2ccccc2C1(O)O [Compound 101] |  | 1930 | MIC [3, 6]: > 8 µg/mL |
| Oc1ccc(NCc2cc3cc4c(cc3nc2O)OCO4)cc1 [Compound 804] | 4670 ± 570 |  |  |
